Laboratory results taken from US20130296393A1, “METHOD FOR CONTROLLING CLUBROOT” (ISHIHARA SANGYO KAISHA, LTD., priority 2011, published 2013).

System: Plasmodiophora brassicae
Experiment: Influence of rainfall on clubroot control effect in cabbage (Example 4 / Comparative Example 4)
Type: in vivo
Set-up: key to Disease severity: 0–100 index: Σ(plants×disease index 0–4)/(plants×4)×100; key to Disease control value: {1−(treatment severity/control severity)}×100; 100 = full control
Conditions: pot; for Disease control value / Disease severity: 67 days after settled planting
Experimental: Disease severity={Σ(number of each index of diseased plants×disease index)/(number of plants surveyed×4)}×100
Disease control value={1−(treatment disease severity/control disease severity)}×100
0: No adhesion of clubroot, 1: clubroot adhesion to lateral root, 2: clubroot adhesion to the entire lateral root or clubroot adhesion to a part of tap root, 3: adhesion of large clubroot to tap root, and 4: clubroot adhesion to the entire tap root.
The test was carried out by the same method as in Example 3 except for preparing an area subjected to a rainfall treatment of 20 mm by means of a rainfall apparatus (a treatment at a rate of 10 mm/hour for 2 hours) the day before treatment, and an area not subjected to the rainfall treatment. Sixty-seven days after the settled planting, the number of each index of clubroot adhesion to the root was investigated. For comparison, the same test was carried out on a control section where a soil drench treatment with the chemical solution for spraying was not applied.
The test was carried out by the same method as in Example 4 except that in place of the soil drench treatment with the chemical solution for spraying, 30 kg/10 a of 0.3% flusulfamide (dust formulation of Nebijin [trade name], manufactured by Mitsui Chemicals Agro, Inc.) was applied to the test soil just before the settled planting and incorporated into the soil by means of a small mixer (interfusion depth: 15 cm).
The disease severity and disease control value of Example 4 and Comparative Example 4 were determined by the same methods as in Example 1 and Comparative Example 1. In addition, the weight of cabbage in the aerial part was measured. Furthermore, the test result was shown by the average value of five plantings.

[1] = with rainfall treatment 20 mm, 50 ppm soil drench 250 ml/plant 4 days after settled planting
[2] = with rainfall treatment 20 mm, 50 ppm soil drench 250 ml/plant 7 days after settled planting
[3] = with rainfall treatment 20 mm, 50 ppm soil drench 250 ml/plant 14 days after settled planting
[4] = with rainfall treatment 20 mm, 50 ppm soil drench 250 ml/plant just after settled planting
[5] = without rainfall treatment, 50 ppm soil drench 250 ml/plant just after settled planting

Structure (SMILES): Cc1ccc(-c2c(Cl)nc(C#N)n2S(=O)(=O)N(C)C)cc1 [cyazofamid, 4-chloro-2-cyano-1-dimethylsulfamoyl-5-(4-methylphenyl)imidazole]
- Weight in the aerial part [1]: 133 g
- Disease control value [1]: 100
- Disease severity [1]: 0
- Weight in the aerial part [2]: 129 g
- Disease control value [2]: 93
- Disease severity [2]: 5
- Weight in the aerial part [3]: 103 g
- Disease control value [3]: 29
- Disease severity [3]: 50
- Weight in the aerial part [4]: 121 g
- Disease control value [4]: 100
- Disease severity [4]: 0
- Control effect (with rainfall treatment, soil drench within 7 days after settled planting): a practical control effect was obtained
- Weight in the aerial part [5]: 129 g
- Disease control value [5]: 100
- Disease severity [5]: 0
